Values of other authors, collected in PMC8537988, “Re-Use of Caco-2 Monolayers in Permeability Assays—Validation Regarding Cell Monolayer Integrity” (Pharmaceutics, 2021).

How the values were obtained:
Caco-2 monolayers = tested on: Caco-2 monolayers; set-up: method as in PMID 34247356; settings: day 23 post-seeding, 90 min sampling interval; cited from earlier work
[1] = tested on: transporters in the membrane (influx or efflux); set-up: method as in PMID 9213361; settings: cited from earlier work

Lucifer yellow CH di-potassium salt [LY]
amount of LY that permeates through Caco-2 monolayers (Caco-2 monolayers): 0.27% | substrate of transporters in the membrane (influx or efflux) [1]: not a substrate of transporters in the membrane (influx or efflux)
